In patent US8921405B2, “Compounds” (Orexo AB, priority 2009, dated 2014):
pIC50: −log10 of the molar value.

Target: T1, recombinant human mPGES-1 (Homo sapiens, UniProt O14684)
T1 construct: made in house; host or cells: Rosetta E. coli (membrane/microsome fraction)
T1 sequence (O14684 1-152): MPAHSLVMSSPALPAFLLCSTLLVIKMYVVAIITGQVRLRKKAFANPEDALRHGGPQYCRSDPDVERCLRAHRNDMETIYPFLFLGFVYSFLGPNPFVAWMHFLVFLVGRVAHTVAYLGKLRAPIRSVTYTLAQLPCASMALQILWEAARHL
Experiment: mPGES-1 HTRF assay (inhibition of PGE2 formation from PGH2)
Assay type: biochemical
Details: HTRF assay
Summary of the method: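 Microsomes of E. coli expressing human mPGES-1, in 0.1 M KPi pH 7.4 with 2.5 mM GSH, preincubated 25 min at room temperature with inhibitor, then given PGH2 for 1 min before FeCl2 acidic stop. PGE2 quantified by HTRF (665/620 nm ratio) against synthetic PGE2 standard curve; percent inhibition versus controls.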

| Compound | pIC50 |
| --- | --- |
| COCCn1c(Nc2cc(CNC(=O)C3(C(F)(F)F)CC3)ccc2Cl)nc2cc(C(=O)Nc3ccc(Br)cc3)ccc21 [Example 71, N-(4-Bromo-phenyl)-2-(2-chloro-5-{[(1-trifluoromethyl-cyclopropanecarbonyl)-amino]-methyl}-phenylamino)-1-(2-methoxyethyl)-1H-benzimidazole-5-carboxylic acid amide] | 8.70 |
| Cn1c(Nc2cc(CNC(=O)C(C)(F)F)ccc2Cl)nc2cc(C(=O)Nc3ccc(Br)cc3)c(OCC(F)F)cc21 [Example 72, N-(4-Bromo-phenyl)-2-(2-chloro-5-{[(1,1-difluoro-ethylcarbonyl)-amino]-methyl}-phenylamino)-6-(2,2-difluoro-ethoxy)-1-methyl-1H-benzimidazole-5-carboxylic acid amide] | 8.52 |
| CC(C(=O)NCc1ccc(Cl)c(Nc2nc3cc(C(=O)Nc4ccc(Br)cc4)c(OCC(F)F)cc3n2C)c1)C(F)(F)F (stereo not shown) [Example 73, N-(4-Bromo-phenyl)-2-(2-chloro-5-{[(1-trifluoromethyl-ethyl-carbonyl)-amino]-methyl}-phenylamino)-6-(2,2-difluoro-ethoxy)-1-methyl-1H-benzimidazole-5-carboxylic acid amide] | 8.52 |
| Cn1c(Nc2cc(CNC(=O)c3c(F)cccc3Cl)ccc2Cl)nc2cc(C(=O)Nc3ccc(Br)cc3)c(OCC(F)F)cc21 [Example 74, N-(4-Bromo-phenyl)-2-(2-chloro-5-{[(2-chloro-6-fluorophenylcarbonyl)-amino]-methyl}-phenylamino)-6-(2,2-difluoro-ethoxy)-1-methyl-1H-benzimidazole-5-carboxylic acid amide] | 8.40 |
| Cn1c(Nc2cc(CNC(=O)C(C)(N)C(F)(F)F)ccc2Cl)nc2cc(C(=O)Nc3ccc(Br)cc3)c(OCC(F)F)cc21 (stereo not shown) [Example 75, N-(4-Bromo-phenyl)-2-(2-chloro-5-{[(1-amino-1-trifluoromethyl-ethyl-carbonyl)-amino]-methyl}-phenylamino)-6-(2,2-difluoro-ethoxy)-1-methyl-1H-benzimidazole-5-carboxylic acid amide] | 8.52 |
| Cn1c(Nc2cc(CNC(=O)C3(O)CC3)ccc2Cl)nc2cc(C(=O)Nc3ccc(Br)cc3)c(OCC(F)F)cc21 [Example 76, N-(4-Bromo-phenyl)-2-(2-chloro-5-{[(1-hydroxycyclopropanecarbonyl)-amino]-methyl}-phenylamino)-6-(2,2-difluoro-ethoxy)-1-methyl-1H-benzimidazole-5-carboxylic acid amide] | 8.52 |
| Cn1c(Nc2cc(CNC(=O)C(C)(C)C(F)(F)F)ccc2Cl)nc2cc(C(=O)Nc3ccc(Br)cc3)c(OCC(F)F)cc21 [Example 77, N-(4-Bromo-phenyl)-2-(2-chloro-5-{[(1-methyl-1-trifluoromethyl-ethylcarbonyl)-amino]-methyl}-phenylamino)-6-(2,2-difluoro-ethoxy)-1-methyl-1H-benzimidazole-5-carboxylic acid amide] | 8.40 |
| CC(=O)NCc1ccc(Cl)c(Nc2nc3cc(C(=O)Nc4ccc(Br)cc4)c(OCC(F)F)cc3n2C)c1 [Example 79, N-(4-Bromo-phenyl)-2-(2-chloro-5-{[(methylcarbonyl)-amino]-methyl}-phenylamino)-6-(2,2-difluoro-ethoxy)-1-methyl-1H-benzimidazole-5-carboxylic acid amide] | 8.40 |
| Cn1c(Nc2cc(CNC(=O)C3CC3)ccc2Cl)nc2cc(C(=O)Nc3ccc(Br)cc3)c(OCC(F)F)cc21 [Example 80, N-(4-Bromo-phenyl)-2-(2-chloro-5-{[(cyclopropylcarbonyl)-amino]-methyl}-phenylamino)-6-(2,2-difluoro-ethoxy)-1-methyl-1H-benzimidazole-5-carboxylic acid amide] | 8.05 |
| Cn1c(Nc2cc(CN[S+]([O-])C(C)(C)C)ccc2Cl)nc2cc(C(=O)Nc3ccc(Br)cc3)c(OCC(F)F)cc21 (stereo not shown) [Example 81, N-(4-Bromo-phenyl)-2-(2-chloro-5-{[(tert-butylsulfinyl)-amino]-methyl}-phenylamino)-6-(2,2-difluoro-ethoxy)-1-methyl-1H-benzimidazole-5-carboxylic acid amide] | 8.70 |
